Measurements from PubChem BioAssay (NCI).
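Assay format: 96-well plates, 48-hour exposure. GI50 marks 50% less growth. TGI denotes the concentration required for complete inhibition of growth.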

Key:
Experiment in all cases: DTP human tumour cell line panel, 48 h
OVCAR-8 ovarian = tested on: OVCAR-8 ovarian
SF-268 CNS = tested on: SF-268 CNS
A549 NSCLC = tested on: A549 NSCLC
KM12 colon = tested on: KM12 colon
UACC-62 melanoma = tested on: UACC-62 melanoma
HT29 colon = tested on: HT29 colon
MOLT-4 leukemia = tested on: MOLT-4 leukemia
HL-60(TB) leukemia = tested on: HL-60(TB) leukemia
HOP-92 NSCLC = tested on: HOP-92 NSCLC
NCI-H23 lung = tested on: NCI-H23 lung

Compound | TGI (OVCAR-8 ovarian) [µM] | TGI (SF-268 CNS) [µM] | TGI (A549 NSCLC) [µM] | TGI (KM12 colon) [µM] | TGI (UACC-62 melanoma) [µM] | TGI (HT29 colon) [µM] | TGI (MOLT-4 leukemia) [µM] | TGI (HL-60(TB) leukemia) [µM] | TGI (HOP-92 NSCLC) [µM] | TGI (NCI-H23 lung) [µM] | GI50 (SF-268 CNS) [nM] | GI50 (A549 NSCLC) [nM] | GI50 (KM12 colon) [nM] | GI50 (UACC-62 melanoma) [nM] | GI50 (HT29 colon) [nM] | GI50 (MOLT-4 leukemia) [nM] | GI50 (HL-60(TB) leukemia) [nM] | GI50 (HOP-92 NSCLC) [nM] | GI50 (NCI-H23 lung) [µM] | GI50 (OVCAR-8 ovarian) [nM]
O=c1nc2ccc([N+](=O)[O-])cc2[n+]([O-])[nH]1 | > 100 | > 100 | > 100 | > 100 | > 100 | > 100 | > 100 | > 100 | > 100 | > 100 |  |  |  |  |  |  |  |  |  | 
CCOc1cc(/C=C/C(=O)C(C(=O)/C=C/c2ccc(OC(=O)CNc3nc4ccccc4[nH]3)c(OCC)c2)C(=O)CNc2nc3ccccc3[nH]2)ccc1OC(=O)CNc1nc2ccccc2[nH]1 |  | 6.79 | 27 | 3.26 | 3.98 | 2.56 | 3.04 | 3.61 | 4.26 | 9.71 | 2000 | 3550 | 1620 | 1900 | 1290 | 1470 | 1620 | 1400 | 2.5 | 
c1ccc2c(c1)NCc1cc3ccccc3nc1O2 | > 100 | > 100 | > 100 | > 100 | > 100 | > 100 | > 100 | > 100 | > 100 | > 100 |  |  |  |  |  |  |  |  |  | 
C/C(=N\NC(=O)c1ccc(Cl)cc1)c1nc2ncccc2[nH]1 | 58.6 | > 100 | > 100 | > 100 | 55.4 | > 100 | 90.6 | 70.2 |  | > 100 |  |  |  |  |  |  |  |  |  | 
O=C(N/N=C\c1cccc2ccccc12)Nc1ccccc1 | > 100 |  |  | > 100 | > 100 | > 100 | > 100 |  | > 100 | > 100 |  |  |  |  |  |  |  |  |  | 
O=C1CCC[C@H]2O[C@@H](COC(=O)c3ccccc3)C[C@H]2O1 | > 100 | > 100 | > 100 | > 100 | > 100 | > 100 | > 100 | > 100 | > 100 | > 100 |  |  |  |  |  |  |  |  |  | 
Cc1cc(N/N=C/c2nc(-c3ccc(Cl)cc3)oc2C)c2cc(Br)ccc2n1 | 5.97 | 28.2 | 3.71 | 5.43 | 4.43 | 5.99 | 13.5 | 5.44 | 16.4 | 23.6 | 3700 | 1770 | 2210 | 2020 | 2310 | 2660 | 2200 | 3240 | 6 | 2410
